The subject of assay [1] is pGL3-NF-κB in Jurkat cells. The assay can be described thus: NF-κB dependent luciferase gene expression. The assay is classed as cell-based, human. Particulars: transfected Jurkat; pretreatment. How it is done: Transfection and Assay of Luciferase Activity. Jurkat cells were transfected with pGL3-NF-κB by electroporation. The cells were then treated with monoterpene/triterpene glycoside G1 (1 μg/ml) for 16 h. NF-κB was activated using LPS (100 ng/ml), PMA (5 ng/ml), or TNF (1 nM). Luciferase activity was measured using the luciferase assay kit (Promega, Madison, Wis.) as per the manufacturer's instructions.

In assay [2] the test system is mitochondrial fraction of Jurkat cells. The assay can be described thus: Cytochrome c release in a cell free system. It is filed as biochemical, human. Particulars: isolated mitochondria. How it is done: Isolation of the Submitochondrial Fraction. Jurkat cells (1.5-2.0×10^7) were suspended in 1 ml sucrose buffer (250 mM sucrose in 30 mM Tris-HCl pH 7.4) and transferred into an N2 cavitation chamber (PARR Instruments Company, Moline, Ill.). The cells were subjected to N2 cavitation (300 psi for 5 min) as per the manufacturer's instructions. Under these conditions most of the cell membrane was disrupted with no change in the mitochondrial respiratory activity. Next, DNA and the nuclear fraction were removed by centrifugation (1500 g, 30 sec). The supernatant was further centrifuged (16000 g, 10 min) and the pellet was used as the submitochondrial fraction.
To observe if monoterpene/triterpenoid saponins directly affected mitochondria to induce apoptosis, experiments were carried out using avicin G in a cell free system. Mitochondria were isolated from Jurkat cells by the N2 cavitation method.

In the next assay the test system is COX-2 in RAW 264.7 cells. The assay can be described thus: LPS-induced COX-2 expression (western blot). Particulars: RAW264.7; 2 μg/ml 16 h; LPS 100 ng/ml. The assay is classed as cell-based. How it is done:
Induction and Measurement of iNOS and COX-2. RAW 264.7 cells (0.5×10^6/ml) were plated in 100 mm dishes and treated with F094 or monoterpene/triterpene glycosides (2 μg/ml) for 16 h. Next, the cells were exposed to 100 ng/ml of LPS for 24 h. Cells were lysed in a buffer containing 50 mM Tris, pH 7.4, 100 mM NaCl, 0.5% NP-40, 10 μg/ml leupeptin, 5 μg/ml aprotinin, and 100 μM PMSF. 70 μg of cellular protein were then loaded on a 7.5% SDS-polyacrylamide gel and electrotransferred onto a nitrocellulose membrane. Levels of iNOS and COX-2 were analyzed by Western blot analysis using rabbit anti-iNOS (Santa Cruz) and goat anti-COX-2 antibodies respectively.

A further assay concerns the target T1, NF-κB (Homo sapiens, UniProt P19838+Q04206).
T1 construct: endogenous in cells; host or cells: Jurkat cells stimulated with TNF; nuclear extract
The assay can be described thus: In vitro NF-κB DNA binding (EMSA on extracts). It is filed as biochemical. How it is done:
(underline indicates NF-κB binding sites) for 15 min at 37° C. The incubation mixture included 3 μg of poly (dI:dC) in a binding buffer (25 mM HEPES, pH 7.9, 0.5 mM EDTA, 0.5 mM DTT, 1% NP-40, 5% glycerol, 50 mM NaCl). The DNA-protein complex was separated from the free oligonucleotide on a 7.5% polyacrylamide gel. The specificity of NF-κB-DNA binding was examined by competition with a double stranded mutated oligonucleotide, unlabeled oligonucleotide and by supershift of the band by anti-p65 antibody. The radioactive bands from dried gels were visualized on a PhosphoImager (Molecular Dynamics, Sunnyvale, Calif.) and quantitated using ImageQuant Software.
Monoterpene/triterpene glycoside G Inhibits NF-κB-DNA Binding. […] Therefore, the inventors analyzed the effect of monoterpene/triterpene glycoside G1 on the ability of active NF-κB to bind to DNA in a cell-free system. Nuclear extracts from TNF-stimulated cells were incubated with increasing concentrations of monoterpene/triterpene glycoside G1. […] Deoxycholate (DOC) is known to dissociate NF-κB from IκB, thereby making it available in an active nuclear form.
A general note: In EMSA bound probe runs differently from free probe, usually more slowly.

In another assay the test system is IκBα in Jurkat cells. The assay can be described thus: Western blot of IκBα degradation. The assay is classed as cell-based, human. Particulars: 2 μg/ml 16 hours, TNF 1 nM. How it is done: (§1) Western Blot Analysis. Cytoplasmic and nuclear extracts of Jurkat cells treated with monoterpene/triterpene glycoside G1 were used to study the degradation of IκB and nuclear translocation of the p65 subunit of NF-κB respectively. Then, 50 μg of the cytoplasmic or nuclear protein were resolved on a 9% SDS-polyacrylamide gel and electrotransferred onto a nitrocellulose membrane. The membranes were probed with rabbit anti-IκBα or rabbit anti-p65 antibody (Santa Cruz, Calif.) followed with anti-rabbit antibody conjugated to horseradish peroxidase (HRPO). Protein bands were detected by chemiluminescence (ECL, Amersham).

The subject of assay [3] is p65 subunit of NF-κB in Jurkat cells. The assay can be described thus: Western blot of nuclear translocation of p65. It is filed as cell-based, human. The settings on record: 2 μg/ml 16 hours, TNF 1 nM. How it is done: as §1

T1 sequence (Q04206 whole entry): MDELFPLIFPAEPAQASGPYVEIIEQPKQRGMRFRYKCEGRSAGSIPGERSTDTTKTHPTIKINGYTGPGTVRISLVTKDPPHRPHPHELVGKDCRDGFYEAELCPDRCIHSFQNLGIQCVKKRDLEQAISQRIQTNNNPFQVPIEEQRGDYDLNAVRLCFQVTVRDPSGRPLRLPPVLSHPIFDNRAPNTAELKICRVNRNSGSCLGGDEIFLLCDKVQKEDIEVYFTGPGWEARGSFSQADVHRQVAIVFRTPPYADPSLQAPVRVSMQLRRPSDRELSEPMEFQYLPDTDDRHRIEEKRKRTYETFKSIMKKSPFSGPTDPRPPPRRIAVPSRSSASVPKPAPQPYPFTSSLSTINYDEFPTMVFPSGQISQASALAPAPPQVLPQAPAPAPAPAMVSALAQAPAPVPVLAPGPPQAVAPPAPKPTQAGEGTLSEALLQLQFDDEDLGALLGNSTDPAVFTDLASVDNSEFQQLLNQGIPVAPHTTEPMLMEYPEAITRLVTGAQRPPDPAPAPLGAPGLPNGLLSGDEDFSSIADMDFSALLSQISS
T1 sequence (P19838 1-433 limits assumed): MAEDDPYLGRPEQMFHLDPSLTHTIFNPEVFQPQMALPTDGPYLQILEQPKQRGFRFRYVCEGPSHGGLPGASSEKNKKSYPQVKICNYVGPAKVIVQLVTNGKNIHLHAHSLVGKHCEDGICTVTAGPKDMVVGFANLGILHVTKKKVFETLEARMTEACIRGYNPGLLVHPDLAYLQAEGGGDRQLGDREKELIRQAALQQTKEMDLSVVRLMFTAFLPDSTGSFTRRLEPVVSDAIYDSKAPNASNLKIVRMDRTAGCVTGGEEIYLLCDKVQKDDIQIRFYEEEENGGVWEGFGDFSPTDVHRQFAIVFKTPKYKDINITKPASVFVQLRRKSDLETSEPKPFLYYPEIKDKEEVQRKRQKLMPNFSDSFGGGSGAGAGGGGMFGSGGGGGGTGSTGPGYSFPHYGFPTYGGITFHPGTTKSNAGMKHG

For `C=C[C@](C)(O)CC/C=C(\C)C(=O)O[C@H]1[C@H](O)[C@@H](O)[C@H](O[C@@](C)(C=C)CC/C=C(\CO)C(=O)O[C@H]2C[C@]3(C(=O)O[C@@H]4O[C@H](CO)[C@@H](O)[C@H](O)[C@H]4O[C@@H]4O[C@@H](C)[C@H](O[C@@H]5O[C@@H](CO)[C@H](O)[C@H]5O)[C@@H](O[C@@H]5O[C@H](CO)[C@@H](O)[C@H](O)[C@H]5O)[C@H]4O)[C@H](O)C[C@]4(C)C(=CC[C@@H]5[C@@]6(C)CC[C@H](O[C@@H]7O[C@H](CO[C@@H]8O[C@H](C)[C@H](O)[C@H](O)[C@H]8O[C@@H]8OC[C@@H](O)[C@H](O)[C@H]8O)[C@@H](O)[C@H](O)[C@H]7NC(C)=O)C(C)(C)[C@@H]6CC[C@]54C)[C@@H]3CC2(C)C)O[C@@H]1C` [Fraction G1], the “luciferase activity induced by LPS, PMA or TNF” value in assay [1] is “significantly inhibited”. In assay [2] (2 μg/ml), the “peak of cytochrome c release” value lay within 5 to 10 min and the “start of cytochrome c release” value is recorded as “a minute”. In assay [2] (10 min), the “concentration achieving most of the cytochrome c release” value lay in the range of 0.5 to 2.0 µg/mL. Also, the “levels of LPS-induced COX-2” value in the assay with COX-2 in RAW 264.7 cells was “decreases the levels of LPS-induced iNOS and COX-2 sharply”. On NF-κB (cytoplasmic extracts of treated cells), the “DNA binding of DOC (0.8%) activated NF-κB” value is on record as “decreased DNA binding”. Also, the “binding of NF-κB to DNA” value on NF-κB (nuclear extracts from TNF-stimulated cells, 30 min at 37° C.) was “inhibited the binding of NF-κB to DNA in a dose-dependent manner”. Also, in the assay on IκBα in Jurkat cells, the “pattern of IκB degradation” value is given as “no difference”. The “nuclear translocation of p65 subunit” value in assay [3] is on record as “slows down nuclear translocation of the p65 subunit considerably”.

Source of the values: patent publication US20060148732A1, “Inhibition of NF-kappaB by triterpene compositions” (priority 2000, published 2006).
